This note sets out measurements from US20230083012A1, “DIHYDROPYRIMIDINE DERIVATIVES AND USES THEREOF IN THE TREATMENT OF HBV INFECTION OR OF HBV-INDUCED DISEASES” (priority 2019, published 2023).

One data set deals with HBV. Put plainly: Anti-HBV activity in HepG2.2.15 cells (HBV DNA in culture medium by qPCR). The format is cell-based. The note with it: Hepatitis B virus, HepG2.2.15, 144 h, HepG2.2.15 cells, 6 days treatment, HBV DNA in culture medium quantified by real-time PCR; read-out: EC50. As for the experimental part:
Example 2: Anti-Viral Assay in HepG2.2.15 Cells
(§1) HepG2.2.15 (the HepG2.2.15 cell line can be produced by transfection of the HepG2 cell line as described in Sells, Chen, and Acs 1987 (Proc. Natl. Acad. Sci. USA 84: 1005-1009), and the HepG2 cell line is available from ATCC® under number HIB-8065™)
(§2) HepG2.2.15 cells were plated into 96-well plate in 2% FBS culture medium at the density of 40,000 cells/well and 5,000 cells/well for HBV inhibitory activity and cytotoxicity determination, respectively. After incubation at 37° C., 5% CO2 overnight, cells were treated with medium containing compounds for 6 days with medium and compounds refreshed after 3 days of treatment. Each compound was tested in a 1:3 serial dilutions at 8 different concentrations in triplicate. The highest concentration of the compounds was 10 uM or 1 uM for anti-HBV activity assay and 100 uM for cytotoxicity determination.
The change of HBV DNA level induced by the compounds was assessed by quantitative real-time polymerase chain reaction (qPCR). Briefly, the HBV DNA in the culture medium was extracted using QIAamp 96 DNA Blood Kit according to the manual and then quantified by real-time PCR assay using the primers and probe in the table 2 below.
(§3) 2) DATA Analysis EC50 and CC50 values are calculated by the GRAPTIPAD PRISM software.

Data set [1] is described as follows: Cytotoxicity determination in HepG2.2.15 cells (CCK-8 cell viability). The settings on record: human, 6 days treatment, CCK-8 assay, highest concentration 100 uM. The class given is cell-based. As for the experimental part: as §1, §2
Cell viability was determined by CCK-8 assay. After 6 days of compounds treatment, 20 μl CCK-8 reagents were added to each well of cytotoxicity assay plates. Cell plates were incubated at 37° C., 5% CO2 for 2.5 h. The absorbance at 450 nm wavelength and the absorbance at 630 nm wavelength as reference was measured.
as §3

For the compound `COC(=O)C1=C(CN2CC(F)(F)[C@@H]3C(=O)N(CC(C)(C)C(=O)O)C[C@@H]32)NC(c2nccs2)=N[C@H]1c1ccc(F)cc1Cl` (single isomer, unassigned) [Compound 28, 3-((cis)-1-((6-(2-chloro-4-fluorophenyl)-5-(methoxycarbonyl)-2-(thiazol-2-yl)-3,6-dihydropyrimidin-4-yl)methyl)-3,3-difluoro-4-oxohexahydropyrrolo[3,4-b]pyrrol-5(1H)-yl)-2,2-dimethylpropanoic acid], the EC50 in the data set with HBV was found to be 28.2 nM. The CC50 at 6 days in data set [1] was over 100 µM.

On to `COC(=O)C1=C(CN2CC(F)(F)[C@@H]3C(=O)N(CC(C)(C)C(=O)O)C[C@@H]32)NC(c2nccs2)=N[C@H]1c1cccc(F)c1Cl` (single isomer, unassigned) [Compound 29, 3-((cis)-1-((6-(2-chloro-3-fluorophenyl)-5-(methoxycarbonyl)-2-(thiazol-2-yl)-3,6-dihydropyrimidin-4-yl)methyl)-3,3-difluoro-4-oxohexahydropyrrolo[3,4-b]pyrrol-5(1H)-yl)-2,2-dimethylpropanoic acid], for which, in the data set with HBV, the EC50 was 13.5 nM. In addition, the CC50 at 6 days in data set [1] is over 100 µM.

With `CCOC(=O)C1=C(CN2CC(F)(F)[C@H]3[C@@H]2CCN3C(=O)[C@H]2CC[C@H](C(=O)O)CC2)NC(c2nccs2)=N[C@H]1c1cccc(F)c1C` (single isomer, unassigned) [Compound 30], the EC50 in the data set on HBV came to 81.3 nM. Also, the CC50 at 6 days in data set [1] stood at 28 µM.

Consider `CCOC(=O)C1=C(CN2CC(F)(F)[C@@H]3CN(C(=O)NS(C)(=O)=O)C[C@@H]32)NC(c2nccs2)=N[C@H]1c1cccc(F)c1C` (single isomer, unassigned) [Compound 31], for which the EC50 with HBV came out at 106 nM. For the same compound, half-maximal cytotoxicity in data set [1] (CC50 at 6 days) was put at 85.8 µM.

As to `CCOC(=O)C1=C(CN2CC(F)(F)[C@@H]3CN(S(=O)(=O)NC(C)=O)C[C@@H]32)NC(c2nccs2)=N[C@H]1c1cccc(F)c1C` (single isomer, unassigned) [Compound 32], the concentration giving a half-maximal response (EC50) in the data set on HBV worked out at 3.4 nM. In data set [1], this compound came in with a cytotoxic concentration (CC50) at 6 days of 31.8 µM.

For the compound `CCOC(=O)C1=C(CN2CC(F)(F)[C@@H]3CN(S(N)(=O)=O)C[C@@H]32)NC(c2nccs2)=N[C@H]1c1cccc(F)c1C` (single isomer, unassigned) [Compound 33], the EC50 with HBV turned out to be 2.4 nM. In data set [1], this compound showed a cytotoxic concentration (CC50) at 6 days of 14.6 µM.

For `CCOC(=O)C1=C(CN2CC(F)(F)[C@H]3[C@@H]2CCN3S(N)(=O)=O)NC(c2nccs2)=N[C@H]1c1cccc(F)c1C` (single isomer, unassigned) [Compound 34], the 50% effective concentration (EC50) in the data set with HBV stood at 12 nM. In data set [1], this compound came in with a 50% cytotoxic concentration (CC50) at 6 days of 14.3 µM.

As for `CCOC(=O)C1=C(CN2CC(F)(F)[C@@H]3CN(C(N)=O)C[C@@H]32)NC(c2nccs2)=N[C@H]1c1cccc(F)c1C` (single isomer, unassigned) [Compound 35], in the data set with HBV, the 50% effective concentration (EC50) was determined as 13.3 nM. This compound also yielded a CC50 at 6 days in data set [1] of 35.2 µM.

With `CCOC(=O)C1=C(CN2CC(F)(F)[C@H]3[C@@H]2CCN3C(N)=O)NC(c2nccs2)=N[C@H]1c1cccc(F)c1C` (single isomer, unassigned) [Compound 36], the EC50 in the data set with HBV amounted to 30.1 nM. The compound further gave a CC50 at 6 days in data set [1] of 26 µM.

In the case of `COC(=O)C1=C(CN2CC(F)(F)[C@@H]3C(=O)N(CC(C)(C)C(=O)O)C[C@@H]32)NC(c2ncoc2C)=N[C@H]1c1ccc(F)cc1Cl` (single isomer, unassigned) [Compound 41, 3-((cis)-1-((6-(2-chloro-4-fluorophenyl)-5-(methoxycarbonyl)-2-(5-methyloxazol-4-yl)-3,6-dihydropyrimidin-4-yl)methyl)-3,3-difluoro-4-oxohexahydropyrrolo[3,4-b]pyrrol-5(1H)-yl)-2,2-dimethylpropanoic acid], the EC50 in the data set with HBV came to 93.8 nM. Besides, in data set [1], the CC50 at 6 days is over 100 µM.

Regarding `COC(=O)C1=C(CN2CC(F)(F)[C@@H]3C(=O)N(CC(C)(C)C(=O)O)C[C@@H]32)NC(c2nccs2)=N[C@H]1c1ccc(F)c(F)c1Cl` (single isomer, unassigned) [Compound 42, 3-((cis)-1-((6-(2-Chloro-3,4-difluorophenyl)-5-(methoxycarbonyl)-2-(thiazol-2-yl)-3,6-dihydropyrimidin-4-yl)methyl)-3,3-difluoro-4-oxohexahydropyrrolo[3,4-b]pyrrol-5(1H)-yl)-2,2-dimethylpropanoic acid], in the data set on HBV, the EC50 was 13.8 nM. The same compound displayed a CC50 at 6 days in data set [1] of over 100 µM.

Regarding `CCOC(=O)C1=C(CN2CC(F)(F)[C@@H]3C(=O)N(CC(C)(C)C(=O)O)C[C@@H]32)NC(c2nccs2)=N[C@H]1c1cccc(F)c1Cl` (single isomer, unassigned) [Compound 43, 3-((cis)-1-((6-(2-chloro-3-fluorophenyl)-5-(ethoxycarbonyl)-2-(thiazol-2-yl)-3,6-dihydropyrimidin-4-yl)methyl)-3,3-difluoro-4-oxohexahydropyrrolo[3,4-b]pyrrol-5(1H)-yl)-2,2-dimethylpropanoic acid], in the data set on HBV, the half-maximal effective concentration (EC50) amounted to 4.1 nM. In data set [1], the cytotoxic concentration (CC50) at 6 days was determined as 50.2 µM.

In the case of `CCOC(=O)C1=C(CN2CC(F)(F)[C@@H]3C(=O)N([C@H]4CC[C@@H](C(=O)O)CC4)C[C@@H]32)NC(c2nccs2)=N[C@H]1c1cccc(F)c1C` (single isomer, unassigned) [Compound 44A], the EC50 in the data set on HBV was 56.7 nM. The 50% cytotoxic concentration (CC50) at 6 days in data set [1] is over 100 µM.

On to `CCOC(=O)C1=C(CN2CC(F)(F)[C@@H]3CN(S(=O)(=O)CC(C)(C)C(=O)O)C[C@@H]32)NC(c2nccs2)=N[C@H]1c1cccc(F)c1C` (single isomer, unassigned) [Compound 46], for which, in the data set on HBV, the EC50 came out at 39.4 nM. In addition, the CC50 at 6 days in data set [1] amounted to 20.9 µM.

In the case of `CCOC(=O)C1=C(CN2CC(F)(F)[C@@H]3CN(CC4(CC(=O)O)CC4)C[C@@H]32)NC(c2nccs2)=N[C@H]1c1cccc(F)c1C` (single isomer, unassigned) [Compound 48], the half-maximal effective concentration (EC50) in the data set with HBV was 105 nM. Further, the CC50 at 6 days in data set [1] was over 100 µM.

For `CCOC(=O)C1=C(CN2CC[C@@]3(F)C(=O)N(CCC(C)(C)C(=O)O)C[C@@H]23)NC(c2nccs2)=N[C@H]1c1cccc(F)c1C` (single isomer, unassigned) [Compound 50A], the EC50 in the data set with HBV was found to be 40.8 nM. It took 49.3 µM to reach half-maximal cytotoxicity in data set [1] (CC50 at 6 days).

`CCOC(=O)C1=C(CN2CC(F)(F)[C@@H]3CN(c4ncc(C(=O)O)cn4)C[C@@H]32)NC(c2nccs2)=N[C@H]1c1cccc(F)c1C` (single isomer, unassigned) [Compound 54]: the concentration for a half-maximal effect (EC50) in the data set with HBV came out at 49.2 nM. Also, the cytotoxic concentration (CC50) at 6 days in data set [1] is 55.2 µM.

Consider `CCOC(=O)C1=C(CN2CC(F)(F)[C@@H]3CN(C(=O)[C@H]4C[C@@H](C(=O)O)C4)C[C@@H]32)NC(c2nccs2)=N[C@H]1c1cccc(F)c1C` (single isomer, unassigned) [Compound 56B], for which the concentration giving a half-maximal response (EC50) with HBV is 79.2 nM. This compound gave a 50% cytotoxic concentration (CC50) at 6 days in data set [1] of over 100 µM.

With `CCOC(=O)C1=C(CN2CC(F)(F)[C@@H]3CN(C(=O)[C@@H]4C[C@@H]4C(=O)O)C[C@@H]32)NC(c2nccs2)=N[C@H]1c1cccc(F)c1C` (single isomer, unassigned) [Compound 57B], the EC50 in the data set on HBV was 92.2 nM. In data set [1], this compound came in with a cytotoxic concentration (CC50) at 6 days of 51.2 µM.

With `CCOC(=O)C1=C(CN2CC(F)(F)[C@@H]3CN(C(=O)OC(C)(C)C(=O)O)C[C@@H]32)NC(c2nccs2)=N[C@H]1c1cccc(F)c1C` (single isomer, unassigned) [Compound 60], in the data set with HBV, the concentration giving a half-maximal response (EC50) was 49.6 nM. For the same compound, it took 29.4 µM to reach half-maximal cytotoxicity in data set [1] (CC50 at 6 days).

Consider `CCOC(=O)C1=C(CN2CC(F)(F)[C@H]3[C@@H]2CCN3C(C)=O)NC(c2nccs2)=N[C@H]1c1cccc(F)c1C` (single isomer, unassigned) [Compound 61], for which the EC50 in the data set on HBV worked out at 37.3 nM. The CC50 at 6 days in data set [1] amounted to 21.5 µM.

On to `CCOC(=O)C1=C(CN2CC(F)(F)[C@H]3[C@@H]2CCN3S(C)(=O)=O)NC(c2nccs2)=N[C@H]1c1cccc(F)c1C` (single isomer, unassigned) [Compound 62], for which the EC50 in the data set with HBV was found to be 12.7 nM. The midpoint of cytotoxicity in data set [1], the CC50 at 6 days, lay at 17.3 µM.

Turning to `CCOC(=O)C1=C(CN2CC(F)(F)[C@H]3[C@@H]2CCN3C(=O)NC(N)=O)NC(c2nccs2)=N[C@H]1c1cccc(F)c1C` (single isomer, unassigned) [Compound 63], in the data set with HBV, the EC50 was found to be 11.8 nM. Besides, the CC50 at 6 days in data set [1] is 25.2 µM.

As for `CCOC(=O)C1=C(CN2CC(F)(F)[C@@H]3[C@H]2CN(C(=O)[C@H]2CC2(F)F)N3CCC(C)(C)C(=O)O)NC(c2nccs2)=N[C@H]1c1cccc(F)c1C` (single isomer, unassigned) [Compound 72A], the concentration giving a half-maximal response (EC50) in the data set on HBV turned out to be 55 nM. Besides, the CC50 at 6 days in data set [1] was 14.5 µM.

In the case of `CCOC(=O)C1=C(CN2CC(F)(F)[C@@H]3[C@H]2CN(C(=O)C2CC2)N3CCC(C)(C)C(=O)O)NC(c2nccs2)=N[C@H]1c1cccc(F)c1C` (single isomer, unassigned) [Compound 73], the 50% effective concentration (EC50) in the data set with HBV came to 17 nM. Half-maximal cytotoxicity in data set [1] (CC50 at 6 days) was put at 26 µM.

For the compound `CCOC(=O)C1=C(CN2CC(F)(F)[C@@H]3[C@H]2CN(C(=O)C(C)C)N3CCC(C)(C)C(=O)O)NC(c2nccs2)=N[C@H]1c1cccc(F)c1C` (single isomer, unassigned) [Compound 74], the 50% effective concentration (EC50) in the data set on HBV was determined as 38 nM. In addition, half-maximal cytotoxicity in data set [1] (CC50 at 6 days) was put at 16.6 µM.

What is called EC50 is the concentration that produces a half-maximal response. One may read the CC50 as the concentration that lowers cell viability or growth by half. A high value points to better tolerance by the cells.
